Here are results for one molecule from patent US8052987B2, “Method of administering bisphosphonates” (Novartis Pharmaceuticals Corporation, priority 2000, dated 2011).

The test system of experiment [1] is patients with postmenopausal osteoporosis. Kind of experiment: 12 month dose-ranging trial of iv zoledronic acid: percent change from baseline in bone mineral density (DEXA) versus placebo. The experiment is classed as in vivo, human. The conditions noted are these: for Difference versus placebo for percent change from baseline in bone mineral density of the lumbar spine; postero anterior (L1-L4): at 12 months, ITT population. From the text: “A Multinational, Randomized, Double-Blind, Placebo-Controlled, Parallel-Group, Dose-Ranging, Safety and Efficacy Trial With Intravenous Bolus Injections of Zoledronate In the Treatment of Postmenopausal Osteoporosis”
(§1) This was a dose and dose regimen-finding 12 month trial of iv zoledronic acid in patients with postmenopausal osteoporosis. Three hundred and fifty one patients were randomized to six study arms. Patients who had recent exposure to bone active drugs, e.g. bisphosphonates, estrogen, calcitonin, raloxifene, or a history of metabolic bone diseases were excluded. All patients were evaluated at baseline and in 3-monthly visits. Zoledronic acid or placebo was administered as a bolus iv injection into a peripheral vein over 5 minutes at every visit.
Efficacy was ascertained by measurement of percent change from baseline in bone mineral density (BMD) measured by dual energy X-ray absorptiometry (DEXA) as compared to placebo, at 6, 9, and 12 months.
(§2) • Placebo • 0.25 mg zoledronic acid every 3 months • 0.5 mg zoledronic acid every 3 months • 1.0 mg zoledronic acid every 3 months • 2.0 mg zoledronic acid every 6 months • 4.0 mg zoledronic acid every 12 months

For experiment [2] the test system is unchanged. As to the kind of experiment: Suppression of biochemical markers of bone turnover in the same trial. The experiment is classed as in vivo, human. The note with it: throughout the 6 and 12 month dosing intervals. Here is the method:
as §1
Additionally, the degree and duration of suppression of biochemical markers of bone turnover—parathyroid hormone (PTH), bone specific alkaline phosphatase (BSAP), serum C-telopeptide (CTX), serum osteocalcin, urine N-telopeptide (NTX)/creatinine ratio, urine deoxypyridinoline (d-pyd)/creatinine ratio, urine pyridinoline (pyd)/creatinine ratio—was obtained every 3 months and measured in a central laboratory.
as §2

Regarding `O=P(O)(O)C(O)(Cn1ccnc1)P(=O)(O)O` [zoledronate, 2-(imidazol-1yl)-1-hydroxyethane-1,1-diphosphonic acid], the “Difference versus placebo for percent change from baseline in bone mineral density of the lumbar spine; postero anterior (L1-L4)” value in experiment [1] (1 × 4.0 mg (4.0 mg iv every 12 months)) was 4.6%; in experiment [1] (2 × 2.0 mg (2.0 mg iv every 6 months)), 4.2%; in experiment [1] (4 × 0.25 mg (0.25 mg iv every 3 months)) it was 5.1%; in experiment [1] (4 × 0.5 mg (0.5 mg iv every 3 months)), 4.9%; in experiment [1] (4 × 1.0 mg (1.0 mg iv every 3 months)) it was 4.5%. The “percent change from baseline in BMD compared with placebo” value in experiment [1] (all treatment arms, 12 month results) is “significantly (p<0.001) greater than placebo”. Besides, the “Bone mineral density compared to placebo” value in experiment [1] (at the spine, hip, distal radius, and total body) is recorded as “increased compared to placebo”. Further, the “bone mass increase (BMD data)” value in experiment [1] (dose administration as infrequent as every 6 or 12 months) was “statistically significant and medically relevant bone mass increase”. Further, the “Suppression of biochemical markers of bone formation and bone resorption” value in experiment [2] is given as “suppression of bone turnover to the pre-menopausal level”.
